In series [1] the target is MRGPRX4 (Homo sapiens, UniProt Q96LA9). Description: Cell membrane chromatography, MRGPRX4/CMC column. It is filed as binding. Details: expressed in transfected cells; whole cells or crude membrane fraction. The protocol:
CMC analysis was performed with a Shimadzu LC-2010A apparatus that consisted of pumps, degasser, autosampler, column oven, and a diode-array detector (Shimadzu, Kyoto, Japan). The data were acquired by the Lab-solution program (Shimadzu). The mobile phase consisted of phosphate-buffered saline (PBS; 5 mM, pH 7.4) and was delivered at a flow rate of 0.2 ml/min. The stock solutions (100 μM) of lamotrigine were prepared by separately dissolving the standard drugs in methanol. Standard solutions at various concentrations were prepared by diluting the stock solutions with the mobile phase. The MRGPRX2/CMC and MRGPRX4/CMC column was prepared as follows. Briefly, MRGPRX4-expressed HEK293 cells (1×10^8) were harvested and centrifuged (1000 g, 10 min, at 4° C.). Cells were washed with physiological saline (pH=7.4) by centrifugation at 1000 g for 10 min at 4° C. […] KD value of lamotrigine was determined by means of the MRGPRX4/CMC system as follows. […] This mobile phase with different concentrations of each compound was separately pumped through the MRGPRX4/CMC column at a flow rate of 0.2 ml min^−1 under the gradient program and the breakthrough curves of the compound with different concentrations were recorded. […] Moreover, KD could be determined by calculating the ratio of the intercept to the slope, and [R]s was obtained from the inverse of the intercept.

The subject of series [2] is 129S1/SvImJ mice. Put plainly: SJS/TEN mouse model (daily oral gavage of causative drug). It is filed as in vivo. As to conditions: for TUNEL-positive dead epithelial cells in paw: LTG oral daily. The protocol: Eight-to-ten week old male mice were orally gavaged with either causative drugs (LTG, allopurinol, oxcarbazepine) suspended in saline or saline once daily. The dosage was based on milligrams per kilogram of animal's body weight as indicated (for example, LTG 50 mg kg^−1 body weight). Skin, eyes, and mucosa, survival, body weight, physical and gross appearances (particularly on the eyes, mucosa and skins) were monitored every day.
The animals were deeply anesthetized with pentobarbital and transcardially perfused with 20 ml 0.1 M cold PBS (pH 7.4) followed with 25 ml of cold 4% paraformaldehyde (PFA). Paw skin, eyelid, spleen, lymph nodes were dissected out. postfixed in 4% PFA for more than two hours, and cryoprotected in a 20% followed by 30% sucrose solution for 24 hours each at 4° C. Tissue samples were embedded in the optimal cutting temperature (OCT) and frozen before being serially cut into 20 μm sections and placed onto slides. Hematoxylin and eosin (H&E) staining was performed using standard procedures according to the manufacturer's instruction VITROVIEW™ H&E Stain Kit). To quantify amount of apoptotic cells, terminal deoxynucleotidyl transferase dUTP nick end labeling (TUNEL) assay, a method for detecting DNA fragmentation that results from apoptotic cells by labeling the terminal end of nucleic acids, was performed by following the protocol of Apo-BrdU DNA Fragmentation Assay Kit (Biovision). To estimate the total cell number in tissue, all nuclei were stained with propidium iodide. Digital photographs were captured under confocal fluorescent microscopy at x200 magnification (Zeiss LSM 700). The number of TUNEL-positive nuclei were counted and reported as a percentage over the number of total nuclei observed in the skin's epidermis layer.

Series [3] relates to CD11c+MHC-IIhigh cells. Description: Calcium imaging of sorted mouse splenocytes. As to conditions: WT CD11c+MHC-IIhigh splenocytes. Type of series: cell-based. The protocol: In initial experiments, HEK293 cells were plated on 100 μg/ml poly-D-lysine coated glass cover slips, and transiently transfected with vector containing Mrgprs gene, after 24-48 hours of culture, cells were loaded with Fura 2-acetomethoxy ester calcium indicator (0.5 μM, Molecular Probes) along with pluronic F-127 dispersing agent (0.1%, Molecular Probes) for 30 minutes in the dark at 37° C., then washed with calcium imaging buffer (CIB; NaCl 125 mM, KCl 3 mM, CaCl2 2.5 mM, MgCl2 0.6 mM, HEPES 10 mM, glucose 20 mM, NaHCO3 1.2 mM, sucrose 20 mM, brought to pH 7.4 with NaOH). Drugs were added to Fura 2-loaded cells and intracellular free calcium was measured using 340 nm and 380 nm excitation wavelengths with emission measured at 520 nm with a microscope based imaging system (Nikon Eclipse TE200). Changes in emission fluorescence ratios at 340/380 nm excitation were continuously monitored at 1 second intervals. Later, experiments were performed using Mrgpra1-GFP, Mrgprc11-GFP and MRGPRX4-GFP stable cell lines to confirm the findings obtained from the transiently expressing cells.
To sort different cell types of splenocytes based on CD11c and MHC-II expression, single cell suspension of mouse splenocytes was prepared as above described. Then. […]

Series [4] has as its system Mrgpra1 knockout mice. Put plainly: Dendritic cell adoptive transfer into Mrgpra1 KO mice with daily LTG. Type of series: in vivo, mouse. The settings on record: Mrgpra1 KO animals who received WT dendritic cells; 7-10 days of LTG 50 mg kg−1. The protocol: Spleens from naïve 129S1 WT mice or Mrgpra1−/− mice were aseptically removed and DCs were isolated using mouse Pan Dendritic Cell isolation kit (Miltenyi Biotec) according to the manufacturer's manual. Briefly, single cell suspensions from spleen were generated by collagenase D/DNase I digestion as above mentioned. Then, cocktail of biotin-conjugated antibodies against non-dendritic cells followed by anti-biotin magnetic microbeads were added to the cell suspensions. Dendritic cells were separated from bead labelled non-dendritic cells using LS column. Dendritic cells freshly isolated either from WT mice or KO animals suspended in 200 μl Hanks' Balanced Salt Solution (HBSS) were injected intravenously (tail vein) into the naïve male Mrgpra1 knockout mice (2×10^6 cells/mouse) one day before starting daily LTG (50 mg kg^−1 body weight) administration.

Sequence of MRGPRX4 (Q96LA9 whole entry): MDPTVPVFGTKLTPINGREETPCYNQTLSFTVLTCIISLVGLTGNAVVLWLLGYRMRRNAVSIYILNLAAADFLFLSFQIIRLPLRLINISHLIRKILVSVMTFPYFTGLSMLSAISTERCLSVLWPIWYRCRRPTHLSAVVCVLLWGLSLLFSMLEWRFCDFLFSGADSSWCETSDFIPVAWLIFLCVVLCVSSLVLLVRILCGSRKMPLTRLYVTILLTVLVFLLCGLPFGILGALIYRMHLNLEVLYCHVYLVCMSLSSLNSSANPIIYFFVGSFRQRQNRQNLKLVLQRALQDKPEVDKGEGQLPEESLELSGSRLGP

For `Nc1nnc(-c2cccc(Cl)c2Cl)c(N)n1` [LTG, Lamotrigine], the “Retention time on MRGPRX4/CMC column” value in series [1] (affinity chromatography elution profile) turned out to be 16.7 min. Also, the Kd in series [1] (regression 1/[LR]s versus 1/[L]m, n=5, read-out: KD (MRGPRX4/CMC breakthrough curves)) came out at 417 nM. In series [2] (LTG 50 mg kg−1 oral daily, by day 14, WT 129S1/SvImJ mice), this compound displayed a mortality rate of 60%. Moreover, the “TUNEL-positive dead epithelial cells in paw” value in series [2] (day 9, HET mice) was found to be 45.99±1.84%; in series [2] (day 9, KO mice), 6.10±1.63%; in series [2] (day 9, WT mice), 48.74±5.94%. For the same compound, the survival entry in series [2] (day 14 of LTG treatment, KO group) is “no mouse died”. The mice survived in series [2] (day 14 of LTG treatment, WT and HET groups) came to 30%. Also, the “cells responding (Ca2+ imaging)” value in series [3] is given as “approximately 5%”. For the same compound, the “animals developing SJS-like eye manifestation” value in series [4] worked out at 64%.

(Values after patent publication US11442059B2, “Method for treating a chronic itch condition by administering small molecule MrgprX4 antagonists” (The Johns Hopkins University, priority 2017, dated 2022).)
